From US8420657B2 (Novartis AG, priority 2008, dated 2013) come the findings set out here.

One may read the IC50 as the concentration needed to halve the response being measured.

Each structure is given as a SMILES string.

Experiment [1] concerns the target T1, GST-JAK2(808-1132) (Homo sapiens, UniProt O60674).
T1 construct: GST-JAK2(808-1132); purchased Invitrogen (Carlsbad, USA) #4288
The experiment can be described thus: JAK2 kinase assay (Caliper mobility shift, LabChip 3000). Format: biochemical. The procedure, abridged:
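Recombinant GST-JAK2(808-1132) kinase domain with FITC-labelled JAK3tide peptide substrate and ATP; 60 min at 30 °C, EDTA stop. Substrate/product ratio read by microfluidic mobility shift; compounds at 8 final concentrations, 10 to 0.003 μM.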

In experiment [2] the test system is JAK1/JAK2-dependent nuclear translocation of STAT1-GFP in HT1080 fibrosarcoma cells. The experiment can be described thus: STAT1 nuclear translocation assay (Cellomics), IFN-γ stimulated HT1080 STAT1-GFP cells. Conditions: Homo sapiens, HT-1080, STAT1 translocation pathway. Format: cell-based. The procedure, abridged:
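HT1080 cells stably expressing STAT1-GFP, pre-treated 30 min with compound (10 μM–0.003 μM, 0.1% DMSO), then stimulated 2 h with 100 ng/ml IFN-γ, fixed and Hoechst-stained. Nuclear-cytoplasmic GFP differential imaged over ≥1000 cells/well, normalised to unstimulated and DMSO-stimulated wells for IC50.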

In experiment [3] the test system is JAK2-dependent nuclear translocation of STAT5-GFP in U-2 OS osteosarcoma cells. The experiment can be described thus: STAT5 nuclear translocation assay (Cellomics), rhEpo stimulated U-2 OS STAT5-GFP cells. Format: cell-based. Conditions: Homo sapiens, U2OS; STAT5 translocation pathway. The procedure, abridged: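 U-2 OS cells stably expressing STAT5a-GFP and EpoR pre-treated with compound (final 10 μM to 0.003 μM, 0.1% DMSO) for 30 min at 37° C., then stimulated 1 h with 5 U/ml rhEpo. Nuclear-cytoplasmic GFP differential quantified by automated imaging (≥1000 cells/well, Hoechst nuclear mask). IC50 from % translocation normalized to untreated and DMSO-stimulated controls.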

T1 sequence (O60674 808-1132): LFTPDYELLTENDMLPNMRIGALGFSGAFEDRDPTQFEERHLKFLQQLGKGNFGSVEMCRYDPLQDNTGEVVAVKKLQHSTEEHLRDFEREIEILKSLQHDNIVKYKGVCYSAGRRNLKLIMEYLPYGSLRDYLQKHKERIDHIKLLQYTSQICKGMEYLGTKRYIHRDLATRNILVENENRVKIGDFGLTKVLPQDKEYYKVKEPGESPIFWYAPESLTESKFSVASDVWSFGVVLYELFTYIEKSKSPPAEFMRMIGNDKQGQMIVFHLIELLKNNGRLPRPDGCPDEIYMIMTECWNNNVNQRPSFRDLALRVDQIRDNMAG

As for `C[C@@H]1CN(Cc2c(F)cc(-n3ccc4cnc(Nc5ccc(N6CCN(C)CC6)nc5)nc43)cc2F)C[C@H](C)O1` [Example 447, {7-[4-(cis-2,6-dimethyl-morpholin-4-ylmethyl)-3,5-difluoro-phenyl]-7H-pyrrolo[2,3-d]pyrimidin-2-yl}-[6-(4-methyl-piperazin-1-yl)-pyridin-3-yl]-amine], the IC50 in experiment [1] came out at 9.6 nM; in experiment [2] it was 105 nM; in experiment [3], 11.8 nM.
Consider `Cc1cc(Nc2ncc3ccn(-c4cc(F)c(CN5CCOCC5)c(F)c4)c3n2)ccc1[C@H]1CCCN1` [Example 346, [7-(3,5-Difluoro-4-morpholin-4-ylmethyl-phenyl)-7H-pyrrolo[2,3-d]pyrimidin-2-yl]-((R)-3-methyl-4-pyrrolidin-2-yl-phenyl)-amine], for which the IC50 is at most 3 nM in experiment [1] and 2.8 nM in experiment [3].
For `C[C@@H]1CN(Cc2ccc(Nc3ncc4ccn(-c5ccc(S(=O)(=O)NC(C)(C)C)cc5)c4n3)cc2)C[C@H](C)N1` [Example 464, N-tert-Butyl-4-{2-[4-(cis-3,5-dimethyl-piperazin-1-ylmethyl)-phenylamino]-pyrrolo[2,3-d]pyrimidin-7-yl}-benzenesulfonamide], in that order: at most 3 nM and 59 nM.
On to `COCCOc1ccc(Nc2ncc3ccn(-c4cc(F)c(CN5CCOCC5)c(F)c4)c3n2)cn1` [Example 516, [7-(3,5-Difluoro-4-morpholin-4-ylmethyl-phenyl)-7H-pyrrolo[2,3-d]pyrimidin-2-yl]-[6-(2-methoxy-ethoxy)-pyridin-3-yl]-amine], for which the figures for the IC50 in experiment [1] and in experiment [3] were 6.4 nM and 119 nM, respectively.
The matching figures for `Fc1cc(-n2ccc3cnc(Nc4ccnc(OC5CCOCC5)c4)nc32)cc(F)c1CN1CCOCC1` [Example 350, [7-(3,5-Difluoro-4-morpholin-4-ylmethyl-phenyl)-7H-pyrrolo[2,3-d]pyrimidin-2-yl]-[2-(tetrahydro-pyran-4-yloxy)-pyridin-4-yl]-amine]: at most 3 nM and 21.8 nM.
For `Fc1cc(-n2ccc3cnc(Nc4ccc(CN5CCNC(C(F)(F)F)C5)cc4)nc32)cc(F)c1CN1CCOCC1` (racemic) [Example 476, [7-(3,5-Difluoro-4-morpholin-4-ylmethyl-phenyl)-7H-pyrrolo[2,3-d]pyrimidin-2-yl]-[4-(3-trifluoromethyl-piperazin-1-ylmethyl)-phenyl]-amine], in that order: at most 3 nM and 34.5 nM.
Take `CC1(C)CN(Cc2ccc(Nc3ncc4ccn(-c5cc(F)c(CN6CCOCC6)c(F)c5)c4n3)cc2)CCN1` [Example 473, [7-(3,5-Difluoro-4-morpholin-4-ylmethyl-phenyl)-7H-pyrrolo[2,3-d]pyrimidin-2-yl]-[4-(3,3-dimethyl-piperazin-1-ylmethyl)-phenyl]-amine]: the IC50 in experiment [1] is at most 3 nM; in experiment [3], 12.3 nM.
In the case of `C[C@@H]1CN(c2ccc(Nc3ncc4ccn(-c5ccc(S(=O)(=O)NC(C)(C)C)cc5)c4n3)cn2)C[C@H](C)N1` [Example 351, N-tert-Butyl-4-{2-[6-(cis-3,5-dimethyl-piperazin-1-yl)-pyridin-3-ylamino]-pyrrolo[2,3-d]pyrimidin-7-yl}-benzenesulfonamide], the IC50 stood at 4.3 nM in experiment [1] and 1.3 nM in experiment [3].
`COc1cc(Nc2ncc3ccn(-c4cc(F)c(CN5CCOCC5)c(F)c4)c3n2)cnc1N1C[C@@H](C)N[C@@H](C)C1` [Example 497, [7-(3,5-Difluoro-4-morpholin-4-ylmethyl-phenyl)-7H-pyrrolo[2,3-d]pyrimidin-2-yl]-[6-(cis-3,5-dimethyl-piperazin-1-yl)-5-methoxy-pyridin-3-yl]-amine]: the IC50 in experiment [1] is at most 3 nM; in experiment [3] it was 7.7 nM.
`O=C1CN(c2cc(Nc3ncc4ccn(-c5cc(F)c(CN6CCOCC6)c(F)c5)c4n3)ccn2)CCN1` [Example 500, 4-{4-[7-(3,5-Difluoro-4-morpholin-4-ylmethyl-phenyl)-7H-pyrrolo[2,3-d]pyrimidin-2-ylamino]-pyridin-2-yl}-piperazin-2-one]: the IC50 in experiment [1] was at most 3 nM; in experiment [3], 16 nM.
For `OC1CN(Cc2cc(Nc3ncc4ccn(-c5cc(F)c(CN6CCOCC6)c(F)c5)c4n3)ccc2Cl)C1` [Example 400, 1-{2-Chloro-5-[7-(3,5-difluoro-4-morpholin-4-ylmethyl-phenyl)-7H-pyrrolo[2,3-d]pyrimidin-2-ylamino]-benzyl}-azetidin-3-ol], the IC50 was 7 nM in experiment [1] and 1.7 nM in experiment [3].
In the case of `Cc1cc(Nc2ncc3ccn(-c4cc(F)c(CN5CCOCC5)c(F)c4)c3n2)cnc1N1CCNC(C)(C)C1` [Example 488, [7-(3,5-Difluoro-4-morpholin-4-ylmethyl-phenyl)-7H-pyrrolo[2,3-d]pyrimidin-2-yl]-[6-(dimethyl-piperazin-1-yl)-5-methyl-pyridin-3-yl]-amine], the results for the IC50 in experiment [1] and in experiment [3] were at most 3 nM and 40.5 nM, respectively.
The matching figures for `Cc1ccc(Nc2ncc3ccn(-c4cc(F)c(CN5CCOCC5)c(F)c4)c3n2)cc1Cn1cccn1` [Example 413, [7-(3,5-Difluoro-4-morpholin-4-ylmethyl-phenyl)-7H-pyrrolo[2,3-d]pyrimidin-2-yl]-(4-methyl-3-pyrazol-1-ylmethyl-phenyl)-amine]: at most 3 nM and 28.5 nM.
For `CN1CCN(Cc2cc(Nc3ncc4ccn(-c5cc(F)c(CN6CCOCC6)c(F)c5)c4n3)ccn2)CC1=O` [Example 397, 4-{4-[7-(3,5-Difluoro-4-morpholin-4-ylmethyl-phenyl)-7H-pyrrolo[2,3-d]pyrimidin-2-ylamino]-pyridin-2-ylmethyl}-1-methyl-piperazin-2-one], in that order: at most 3 nM and 13 nM.
The matching figures for `CN1CCN(Cc2ccc(Nc3ncc4ccn(-c5cc(F)c(CN6CCOCC6)c(F)c5)c4n3)cn2)CC1=O` [Example 505, 4-{5-[7-(3,5-Difluoro-4-morpholin-4-methyl-phenyl)-7H-pyrrolo[2,3-d]pyrimidin-2-ylamino]-pyridin-2-ylmethyl}-1-methyl-piperazin-2-one]: 4.1 nM and 60 nM.
Take `Cc1cc(Nc2ncc3ccn(-c4cc(F)c(CN5CCOCC5)c(F)c4)c3n2)cnc1N1CCNCC(F)(F)C1` [Example 512, [6-(6,6-Difluoro-[1,4]diazepan-1-yl)-5-methyl-pyridin-3-yl]-[7-(3,5-difluoro-4-morpholin-4-ylmethyl-phenyl)-7H-pyrrolo[2,3-d]pyrimidin-2-yl]-amine]: the IC50 in experiment [1] is at most 3 nM; in experiment [3], 14 nM.
Take `Cc1ccc(Nc2ncc3ccn(-c4cc(F)c(CN5CCS(=O)(=O)CC5)c(F)c4)c3n2)cc1CN1CCC(O)C1` (racemic) [Example 425, 1-(5-{7-[4-(1,1-Dioxido-thiomorpholin-4-ylmethyl)-3,5-difluoro-phenyl]-7H-pyrrolo[2,3-d]pyrimidin-2-ylamino}-2-methyl-benzyl)-pyrrolidin-3-ol]: the values for the IC50 in experiment [1] and in experiment [3] were at most 3 nM and 3.6 nM, respectively.
The matching figures for `Cc1ccc(Nc2ncc3ccn(-c4cc(F)c(CN5CCOCC5=O)c(F)c4)c3n2)cc1CN1CCNCC1` [Example 485, 4-{2,6-Difluoro-4-[2-(4-methyl-3-piperazin-1-ylmethyl-phenylamino)-pyrrolo[2,3-d]pyrimidin-7-yl}-benzyl]-morpholin-3-one]: at most 3 nM and 110 nM.
The matching figures for `CN1CCN(c2cc(Nc3ncc4ccn(-c5cc(F)c(CN6CCOCC6)c(F)c5)c4n3)ccn2)CC1=O` [Example 504, 4-{4-[7-(3,5-Difluoro-4-morpholin-4-ylmethyl-phenyl)-7H-pyrrolo[2,3-d]pyrimidin-2-ylamino]-pyridin-2-yl}-1-methyl-piperazin-2-one]: at most 3 nM and 81.5 nM.
For the compound `CN1CCN(C(=O)c2ccc(Nc3ncc4ccn(-c5cc(F)c(CN6CCOCC6)c(F)c5)c4n3)cn2)CC1` [Example 466, {5-[7-(3,5-Difluoro-4-morpholin-4-ylmethyl-phenyl)-7H-pyrrolo[2,3-d]pyrimidin-2-ylamino]-pyridin-2-yl}-(4-methyl-piperazin-1-yl)-methanone], the IC50 amounted to 7.9 nM in experiment [1] and 56 nM in experiment [3].
